Data on four compounds can be found in patent US7074789B2, “Kinase inhibitors” (Amgen Inc., priority 1999, dated 2006).

Common to all, as to assay type: biochemical
One assay deals with T1, Lck (Homo sapiens, UniProt P06239).
T1 construct: Kinases are expressed as either kinase domains or full length constructs; made in house
The experiment in a line: Kinase inhibition assay (33P transfer), Lck. To be noted: read-out: Lck-1. A digest of the protocol:
(§1)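 Steps: express kinase as GST or polyHistidine fusion in E. coli or High Five cells; optionally co-express or mix with regulatory polypeptides; incubate with 33P-ATP and plate-attached poly(Glu,Tyr) 4:1 or poly(Arg,Ser) 3:1; wash with 0.5% phosphoric acid; count by liquid scintillation.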

Another assay addresses T2, Lyn (Homo sapiens, UniProt P07948).
T2 construct: Kinases are expressed as either kinase domains or full length constructs; made in house
As to the kind of experiment: Kinase inhibition assay (33P transfer), Lyn. The settings on record: Table 6, Lyn-1 kinase inhibition class. Summed up: (§2)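 GST/His-fusion kinases, E. coli or High Five expressed, affinity purified; 33P-ATP, plate-coated poly(Glu,Tyr) 4:1 or poly(Arg,Ser) 3:1; 0.5% H3PO4 wash, scintillant, LSC.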

Another assay has as its target T3, Src (Homo sapiens, UniProt P12931).
T3 construct: Kinases are expressed as either kinase domains or full length constructs; made in house
As to the kind of experiment: Kinase inhibition assay (33P transfer), Src. To be noted: Table 6, Src-1 kinase inhibition class. Summed up: as §2

The next assay deals with T4, Fyn (Homo sapiens, UniProt P06241).
T4 construct: Kinases are expressed as either kinase domains or full length constructs; made in house
T4 sequence (P06241 whole entry, species assumed, the tested form may be a part): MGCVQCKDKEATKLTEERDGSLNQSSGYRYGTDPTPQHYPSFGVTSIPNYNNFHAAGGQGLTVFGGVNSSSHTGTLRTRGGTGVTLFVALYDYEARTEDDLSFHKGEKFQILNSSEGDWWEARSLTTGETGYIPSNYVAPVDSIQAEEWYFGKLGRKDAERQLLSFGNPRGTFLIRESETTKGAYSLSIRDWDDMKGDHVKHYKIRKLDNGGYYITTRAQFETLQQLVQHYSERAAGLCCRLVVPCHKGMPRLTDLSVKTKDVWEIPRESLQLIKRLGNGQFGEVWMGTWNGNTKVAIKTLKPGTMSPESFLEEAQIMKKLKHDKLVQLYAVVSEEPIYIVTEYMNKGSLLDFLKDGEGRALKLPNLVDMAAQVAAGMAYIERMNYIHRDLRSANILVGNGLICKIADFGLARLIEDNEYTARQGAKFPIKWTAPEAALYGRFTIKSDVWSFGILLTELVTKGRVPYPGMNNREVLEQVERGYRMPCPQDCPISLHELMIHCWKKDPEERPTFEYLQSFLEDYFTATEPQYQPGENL
The experiment in a line: Kinase inhibition assay (33P transfer), Fyn. The settings on record: read-out: Fyn-1. A digest of the protocol: as §2

The target of another assay is T5, Zap-70 (Homo sapiens, UniProt P43403).
T5 construct: Kinases are expressed as either kinase domains or full length constructs; made in house
T5 sequence (P43403 1-619): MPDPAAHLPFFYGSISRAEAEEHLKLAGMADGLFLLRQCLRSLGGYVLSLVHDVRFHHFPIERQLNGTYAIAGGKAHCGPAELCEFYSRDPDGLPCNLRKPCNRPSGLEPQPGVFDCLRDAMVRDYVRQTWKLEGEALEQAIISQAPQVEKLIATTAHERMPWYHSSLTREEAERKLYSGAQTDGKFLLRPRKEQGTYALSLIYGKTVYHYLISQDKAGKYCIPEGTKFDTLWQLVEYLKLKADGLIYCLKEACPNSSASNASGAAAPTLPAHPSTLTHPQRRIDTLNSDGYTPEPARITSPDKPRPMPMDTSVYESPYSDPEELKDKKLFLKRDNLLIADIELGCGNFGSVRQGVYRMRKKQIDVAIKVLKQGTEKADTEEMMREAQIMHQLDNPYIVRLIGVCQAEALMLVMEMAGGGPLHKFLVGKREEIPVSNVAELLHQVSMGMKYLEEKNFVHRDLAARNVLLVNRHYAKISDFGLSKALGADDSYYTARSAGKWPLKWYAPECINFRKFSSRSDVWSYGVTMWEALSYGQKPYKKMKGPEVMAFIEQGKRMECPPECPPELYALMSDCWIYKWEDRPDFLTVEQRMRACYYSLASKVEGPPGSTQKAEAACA
The experiment in a line: Kinase inhibition assay (33P transfer), Zap-70. To be noted: read-out: Zap-1. Summed up:
as §1

The target of a further assay is T6, Itk (Homo sapiens, UniProt Q08881).
T6 construct: Kinases are expressed as either kinase domains or full length constructs; made in house
T6 sequence (Q08881 1-620): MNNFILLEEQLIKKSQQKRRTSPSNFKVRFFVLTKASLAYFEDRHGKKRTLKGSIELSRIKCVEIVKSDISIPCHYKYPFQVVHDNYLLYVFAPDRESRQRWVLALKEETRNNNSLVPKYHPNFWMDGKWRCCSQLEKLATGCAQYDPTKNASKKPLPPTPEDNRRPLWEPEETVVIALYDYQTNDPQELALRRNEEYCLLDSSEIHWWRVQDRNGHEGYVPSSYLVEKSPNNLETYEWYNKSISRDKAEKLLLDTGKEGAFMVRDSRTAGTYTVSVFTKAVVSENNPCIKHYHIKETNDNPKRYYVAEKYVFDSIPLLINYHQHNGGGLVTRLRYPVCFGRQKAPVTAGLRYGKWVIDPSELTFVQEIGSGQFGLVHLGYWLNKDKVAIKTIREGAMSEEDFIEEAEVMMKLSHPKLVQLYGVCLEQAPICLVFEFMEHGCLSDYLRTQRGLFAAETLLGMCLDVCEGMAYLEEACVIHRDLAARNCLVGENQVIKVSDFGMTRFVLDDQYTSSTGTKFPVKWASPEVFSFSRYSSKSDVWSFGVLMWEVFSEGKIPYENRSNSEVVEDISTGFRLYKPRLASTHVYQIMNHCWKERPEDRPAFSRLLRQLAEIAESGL
The experiment in a line: Kinase inhibition assay (33P transfer), Itk. The settings on record: read-out: Itk-1. Summed up: as §2

The next assay deals with T7, EGFR (Homo sapiens, UniProt P00533).
T7 construct: Kinases are expressed as either kinase domains or full length constructs; made in house
As to the kind of experiment: Kinase inhibition assay (33P transfer), EGFR. To be noted: Table 2, kinase inhibition class; read-out: EGFR-1. Summed up:
as §2

The next assay concerns the target T8, ErbB2 (Homo sapiens, UniProt P04626).
T8 construct: Kinases are expressed as either kinase domains or full length constructs; made in house
The experiment in a line: Kinase inhibition assay (33P transfer), ErbB2. The settings on record: read-out: ErbB2-2. Summed up: as §2

Another assay deals with T9, Kdr (Homo sapiens, UniProt P35968).
T9 construct: Kinases are expressed as either kinase domains or full length constructs; made in house
The experiment in a line: Kinase inhibition assay (33P transfer), Kdr. The settings on record: read-out: KDR-1. Summed up: as §1

The target in the next assay is T10, Flt-1 (Homo sapiens, UniProt P17948).
T10 construct: Kinases are expressed as either kinase domains or full length constructs; made in house
The experiment in a line: Kinase inhibition assay (33P transfer), Flt-1. Summed up: as §2

A further assay deals with T11, Tek (Homo sapiens, UniProt Q02763).
T11 construct: Kinases are expressed as either kinase domains or full length constructs; made in house
The experiment in a line: Kinase inhibition assay (33P transfer), Tek. The settings on record: read-out: Tek-1. Summed up: as §2

Another assay addresses T12, c-Met (Homo sapiens, UniProt P08581).
T12 construct: Kinases are expressed as either kinase domains or full length constructs; made in house
The experiment in a line: Kinase inhibition assay (33P transfer), c-Met. The settings on record: Table 2, kinase inhibition class; read-out: Met-1. Summed up: as §2

The target of a further assay is T13, AKT (Homo sapiens, UniProt Q9Y243).
T13 construct: Kinases are expressed as either kinase domains or full length constructs; made in house
T13 sequence (Q9Y243 whole entry, the tested form may be a part): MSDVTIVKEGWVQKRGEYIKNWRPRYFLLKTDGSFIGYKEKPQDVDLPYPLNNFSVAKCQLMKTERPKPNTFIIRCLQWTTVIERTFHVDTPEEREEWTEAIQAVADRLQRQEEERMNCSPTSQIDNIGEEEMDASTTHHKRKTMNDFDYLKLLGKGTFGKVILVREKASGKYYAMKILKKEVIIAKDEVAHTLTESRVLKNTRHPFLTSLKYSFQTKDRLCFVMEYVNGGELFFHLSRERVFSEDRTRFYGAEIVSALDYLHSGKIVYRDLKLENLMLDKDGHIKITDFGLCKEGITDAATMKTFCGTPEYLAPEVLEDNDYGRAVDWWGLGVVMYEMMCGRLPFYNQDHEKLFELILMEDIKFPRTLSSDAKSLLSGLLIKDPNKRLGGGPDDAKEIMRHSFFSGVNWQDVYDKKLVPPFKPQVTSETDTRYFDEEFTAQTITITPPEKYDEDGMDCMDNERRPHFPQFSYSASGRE
The experiment in a line: Kinase inhibition assay (33P transfer), AKT. To be noted: Table 2, kinase inhibition class; read-out: AKT3-1. A digest of the protocol: as §1

Another assay addresses T14, IGFR-1 (Homo sapiens, UniProt P08069).
T14 construct: Kinases are expressed as either kinase domains or full length constructs; made in house
As to the kind of experiment: Kinase inhibition assay, IGFR-1 (Table 2). To be noted: Table 2, kinase inhibition class.

The target of a further assay is T15, PDGFRB (Homo sapiens, UniProt P09619).
T15 construct: Kinases are expressed as either kinase domains or full length constructs; made in house
T15 sequence (P09619 33-1106, species assumed): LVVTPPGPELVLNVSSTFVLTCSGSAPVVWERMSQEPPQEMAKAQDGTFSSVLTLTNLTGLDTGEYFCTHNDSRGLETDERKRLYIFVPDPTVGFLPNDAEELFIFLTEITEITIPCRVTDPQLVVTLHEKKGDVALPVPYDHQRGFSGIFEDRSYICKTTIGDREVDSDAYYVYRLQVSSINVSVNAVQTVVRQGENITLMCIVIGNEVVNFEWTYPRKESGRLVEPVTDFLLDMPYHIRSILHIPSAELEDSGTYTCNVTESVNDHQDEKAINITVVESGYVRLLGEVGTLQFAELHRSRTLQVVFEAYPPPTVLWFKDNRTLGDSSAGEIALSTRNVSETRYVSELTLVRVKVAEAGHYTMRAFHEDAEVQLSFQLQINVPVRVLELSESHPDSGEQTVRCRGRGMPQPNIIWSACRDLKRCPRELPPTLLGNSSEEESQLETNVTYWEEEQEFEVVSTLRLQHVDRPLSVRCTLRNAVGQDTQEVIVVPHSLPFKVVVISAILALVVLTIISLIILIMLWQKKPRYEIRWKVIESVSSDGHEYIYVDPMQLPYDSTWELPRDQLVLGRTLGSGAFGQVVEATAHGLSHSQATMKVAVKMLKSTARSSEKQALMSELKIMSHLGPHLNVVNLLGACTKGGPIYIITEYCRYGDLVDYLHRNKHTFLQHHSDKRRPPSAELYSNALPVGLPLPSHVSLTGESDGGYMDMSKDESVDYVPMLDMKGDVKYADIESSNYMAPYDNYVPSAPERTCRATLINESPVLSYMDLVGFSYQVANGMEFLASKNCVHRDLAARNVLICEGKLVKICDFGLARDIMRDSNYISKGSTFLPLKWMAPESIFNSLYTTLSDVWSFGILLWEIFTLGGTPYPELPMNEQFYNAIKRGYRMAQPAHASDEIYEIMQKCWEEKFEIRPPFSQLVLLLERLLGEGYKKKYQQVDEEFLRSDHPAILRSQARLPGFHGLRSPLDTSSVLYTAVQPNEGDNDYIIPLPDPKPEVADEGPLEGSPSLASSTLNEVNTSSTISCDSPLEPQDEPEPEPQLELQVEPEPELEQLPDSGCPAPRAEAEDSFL
The experiment in a line: Kinase inhibition assay (33P transfer), PDGFRB. To be noted: read-out: PDGFRB-1.

Another assay has as its target T16, Hck-1 (Homo sapiens, UniProt P08631).
T16 construct: Kinases are expressed as either kinase domains or full length constructs; made in house
As to the kind of experiment: Kinase inhibition assay (33P transfer), Hck. To be noted: Table 6, Hck-1 kinase inhibition class.

Another assay has as its target T17, ErbB4 (Homo sapiens, UniProt Q15303).
T17 construct: Kinases are expressed as either kinase domains or full length constructs; made in house
The experiment in a line: Kinase inhibition assay (33P transfer), ErbB4. The settings on record: read-out: ErbB4-1.

A further assay concerns the target T18, Ret-1 (Homo sapiens, UniProt P07949).
T18 construct: Kinases are expressed as either kinase domains or full length constructs; made in house
The experiment in a line: Kinase inhibition assay (33P transfer), Ret. The settings on record: Table 6, Ret-1 kinase inhibition class.

Another assay addresses T19, FGFR1 (Homo sapiens, UniProt P11362).
T19 construct: Kinases are expressed as either kinase domains or full length constructs; made in house
The experiment in a line: Kinase inhibition assay (33P transfer), FGFR1. The settings on record: read-out: FGFR1-1.

T17 sequence (Q15303 26-1308, species assumed): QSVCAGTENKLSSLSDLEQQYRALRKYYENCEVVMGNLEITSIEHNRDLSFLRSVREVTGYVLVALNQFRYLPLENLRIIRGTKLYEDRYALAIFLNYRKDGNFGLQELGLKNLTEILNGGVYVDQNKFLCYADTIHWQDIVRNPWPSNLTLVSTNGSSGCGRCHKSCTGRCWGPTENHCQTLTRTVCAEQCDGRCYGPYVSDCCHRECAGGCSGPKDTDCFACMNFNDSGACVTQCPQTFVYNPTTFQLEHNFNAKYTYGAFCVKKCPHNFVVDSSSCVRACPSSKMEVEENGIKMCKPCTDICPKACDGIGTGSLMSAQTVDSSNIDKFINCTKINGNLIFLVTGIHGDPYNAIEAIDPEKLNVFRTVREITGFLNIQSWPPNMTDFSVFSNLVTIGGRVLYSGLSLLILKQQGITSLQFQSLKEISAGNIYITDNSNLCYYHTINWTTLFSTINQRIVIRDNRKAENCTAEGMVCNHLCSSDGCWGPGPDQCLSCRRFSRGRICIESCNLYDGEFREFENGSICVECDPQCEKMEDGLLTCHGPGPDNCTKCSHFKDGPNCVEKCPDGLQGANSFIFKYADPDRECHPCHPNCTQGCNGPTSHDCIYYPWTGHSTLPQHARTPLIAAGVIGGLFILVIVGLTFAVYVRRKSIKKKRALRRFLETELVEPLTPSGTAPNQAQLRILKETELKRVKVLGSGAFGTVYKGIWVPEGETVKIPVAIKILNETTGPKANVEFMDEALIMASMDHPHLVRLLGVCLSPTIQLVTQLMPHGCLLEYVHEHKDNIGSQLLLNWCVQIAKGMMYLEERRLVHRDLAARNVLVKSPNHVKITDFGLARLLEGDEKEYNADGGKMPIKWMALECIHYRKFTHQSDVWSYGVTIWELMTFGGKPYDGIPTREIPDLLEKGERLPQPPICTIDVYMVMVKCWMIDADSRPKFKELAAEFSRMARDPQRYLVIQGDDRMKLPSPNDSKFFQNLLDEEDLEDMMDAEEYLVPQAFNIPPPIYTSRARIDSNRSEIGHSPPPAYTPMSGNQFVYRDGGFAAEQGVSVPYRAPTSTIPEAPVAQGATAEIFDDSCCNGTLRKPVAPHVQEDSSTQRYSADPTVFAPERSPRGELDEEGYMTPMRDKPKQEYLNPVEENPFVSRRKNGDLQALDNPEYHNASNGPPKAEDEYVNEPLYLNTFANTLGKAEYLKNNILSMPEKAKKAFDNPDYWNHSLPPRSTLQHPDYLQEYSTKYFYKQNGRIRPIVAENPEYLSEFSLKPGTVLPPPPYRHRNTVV
T18 sequence (P07949 29-1114): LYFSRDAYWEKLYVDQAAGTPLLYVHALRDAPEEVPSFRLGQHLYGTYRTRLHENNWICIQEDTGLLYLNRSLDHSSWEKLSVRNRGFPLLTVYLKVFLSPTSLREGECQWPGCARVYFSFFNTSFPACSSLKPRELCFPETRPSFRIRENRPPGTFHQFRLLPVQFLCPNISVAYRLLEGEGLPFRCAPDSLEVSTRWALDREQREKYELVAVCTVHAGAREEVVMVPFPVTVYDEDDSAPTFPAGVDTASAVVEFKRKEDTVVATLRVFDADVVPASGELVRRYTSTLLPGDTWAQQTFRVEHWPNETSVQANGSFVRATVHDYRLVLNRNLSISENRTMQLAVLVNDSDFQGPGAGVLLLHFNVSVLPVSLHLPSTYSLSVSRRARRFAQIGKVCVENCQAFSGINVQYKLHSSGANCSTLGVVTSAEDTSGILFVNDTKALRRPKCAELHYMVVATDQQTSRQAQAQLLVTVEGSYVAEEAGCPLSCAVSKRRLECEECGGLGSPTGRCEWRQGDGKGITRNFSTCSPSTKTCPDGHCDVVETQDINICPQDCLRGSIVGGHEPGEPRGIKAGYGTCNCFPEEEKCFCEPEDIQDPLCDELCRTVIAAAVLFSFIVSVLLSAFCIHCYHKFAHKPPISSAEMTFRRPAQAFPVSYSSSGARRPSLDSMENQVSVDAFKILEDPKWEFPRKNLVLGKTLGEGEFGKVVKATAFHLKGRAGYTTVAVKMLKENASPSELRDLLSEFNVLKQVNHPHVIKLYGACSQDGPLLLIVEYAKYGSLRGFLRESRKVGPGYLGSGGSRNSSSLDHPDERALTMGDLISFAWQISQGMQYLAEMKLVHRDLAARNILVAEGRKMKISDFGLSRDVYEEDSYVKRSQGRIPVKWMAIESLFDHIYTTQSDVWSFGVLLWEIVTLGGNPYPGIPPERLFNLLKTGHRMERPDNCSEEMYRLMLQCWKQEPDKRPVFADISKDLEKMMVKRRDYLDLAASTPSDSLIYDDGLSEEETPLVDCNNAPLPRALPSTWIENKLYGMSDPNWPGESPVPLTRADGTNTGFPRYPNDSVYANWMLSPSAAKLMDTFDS
T1 sequence (P06239 whole entry, species assumed, the tested form may be a part): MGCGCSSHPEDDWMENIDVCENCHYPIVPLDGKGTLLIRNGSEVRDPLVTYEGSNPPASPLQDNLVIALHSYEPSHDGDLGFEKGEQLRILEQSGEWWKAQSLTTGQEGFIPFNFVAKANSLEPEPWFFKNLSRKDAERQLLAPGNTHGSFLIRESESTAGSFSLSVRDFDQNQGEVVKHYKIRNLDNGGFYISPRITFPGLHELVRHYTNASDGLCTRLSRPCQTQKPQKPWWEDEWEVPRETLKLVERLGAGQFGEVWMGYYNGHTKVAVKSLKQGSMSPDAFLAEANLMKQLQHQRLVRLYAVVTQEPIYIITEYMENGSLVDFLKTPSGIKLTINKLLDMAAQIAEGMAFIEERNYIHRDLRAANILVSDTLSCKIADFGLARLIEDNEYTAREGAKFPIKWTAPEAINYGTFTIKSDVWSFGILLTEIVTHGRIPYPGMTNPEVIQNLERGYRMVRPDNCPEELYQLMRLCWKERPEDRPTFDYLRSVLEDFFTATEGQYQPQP

Consider `COc1cc(Nc2ncnc(-n3c(NCc4ccc(Cl)cc4)nc4ccccc43)n2)cc(OC)c1OC` [Compound 944], for which the IC50 on Lck was greater than 8.69 µM; against Lyn it was 4.63 to 6.76 µM; on Src, greater than 8.69 µM; at Fyn, greater than 8.69 µM; at Zap-70, greater than 8.69 µM; at Itk, greater than 8.69 µM. The IC50 at EGFR is greater than 8.69 µM; at ErbB2 it was greater than 8.69 µM; at Kdr it was less than 0.772 µM; against Flt-1, 0.772 to 4.63 µM; at Tek, greater than 8.69 µM; at c-Met it was greater than 8.69 µM. The IC50 on AKT is greater than 8.69 µM; against IGFR-1, 6.76 to 8.69 µM; at PDGFRB it was 0.772 to 4.63 µM; on Hck-1, greater than 8.69 µM; at ErbB4 it was greater than 8.69 µM; against Ret-1 it was less than 0.772 µM. The IC50 on FGFR1 fell in the range of 0.772 to 4.63 µM.

Turning to `COc1cc(Nc2ncnc(N3CCCc4ccc(C(F)(F)F)cc43)n2)cc(OC)c1OC` [Compound 518], the IC50 at Lck was greater than 9.75 µM; against Lyn it was 0.867 to 5.2 µM; against Src, greater than 9.75 µM; on Fyn, 5.2 to 7.58 µM; at Zap-70 it was greater than 9.75 µM; at Itk it was greater than 9.75 µM. For the same compound, the IC50 at EGFR was less than 0.867 µM; at ErbB2 it was 0.867 to 5.2 µM; at Kdr, 7.58 to 9.75 µM; against Flt-1 it was greater than 9.75 µM; at Tek, 7.58 to 9.75 µM; at c-Met, greater than 9.75 µM. Also, the IC50 was greater than 9.75 µM on AKT; greater than 9.75 µM on IGFR-1; greater than 9.75 µM at PDGFRB; greater than 9.75 µM on Hck-1; greater than 9.75 µM at ErbB4; 7.58 to 9.75 µM at Ret-1. Besides, the IC50 on FGFR1 was greater than 9.75 µM.

Consider `COc1cc(Nc2ncnc(Nc3ccc(Cl)c4ccccc34)n2)cc(OC)c1OC` [Compound 1031], for which the IC50 at Lck is 0.913 to 5.48 µM; against Lyn, 0.913 to 5.48 µM; at Src it was 5.48 to 7.99 µM; on Fyn, greater than 10.3 µM; on Zap-70, greater than 10.3 µM; on Itk, greater than 10.3 µM. For the same compound, the IC50 on EGFR was less than 0.913 µM; on ErbB2, 0.913 to 5.48 µM; at Kdr it was 5.48 to 7.99 µM; against Flt-1 it was greater than 10.3 µM; on Tek, greater than 10.3 µM; on c-Met, greater than 10.3 µM. For the same compound, the IC50 was greater than 10.3 µM on AKT; 0.913 to 5.48 µM against IGFR-1; less than 0.913 µM at PDGFRB; greater than 10.3 µM against Hck-1; greater than 10.3 µM at ErbB4; 0.913 to 5.48 µM against Ret-1. Moreover, the IC50 on FGFR1 lay in the range of 0.913 to 5.48 µM.

For the compound `COc1cc(Nc2ncnc(-n3c(NCc4cccs4)nc4ccccc43)n2)cc(OC)c1OC` [Compound 950], the IC50 is less than 0.817 µM at Lck; less than 0.817 µM against Lyn; 0.817 to 4.9 µM on Src; 0.817 to 4.9 µM on Fyn; greater than 9.19 µM on Zap-70; greater than 9.19 µM at Itk. For the same compound, the IC50 is 0.817 to 4.9 µM at EGFR; 0.817 to 4.9 µM on ErbB2; less than 0.817 µM at Kdr; less than 0.817 µM at Flt-1; 4.9 to 7.15 µM at Tek; greater than 9.19 µM at c-Met. Further, the IC50 was greater than 9.19 µM at AKT; greater than 9.19 µM against IGFR-1; less than 0.817 µM on PDGFRB; greater than 9.19 µM against Hck-1; 0.817 to 4.9 µM on ErbB4; less than 0.817 µM at Ret-1. Besides, the IC50 at FGFR1 is less than 0.817 µM.
